According to US11684606B2, “Methods of treating generalized pustular psoriasis with an antagonist of CCR6 or CXCR2” (CHEMOCENTRYX, INC., priority 2018, dated 2023):
Values after ≈ are worked out from the molar mass of the structure shown. “Also recorded” adds a separate entry of the source.

Experiments:
mCCR6 = target: T1, mCCR6 (Mus musculus, UniProt O54689); test: In vitro inhibition of chemotaxis, mCCR6-transfected BaF3 cells to mCCL20; assay type: cell-based; settings: in 100% serum
T1 construct: expressed in transfected cells; host or cells: BaF3 cells
T1 sequence (O54689 1-367): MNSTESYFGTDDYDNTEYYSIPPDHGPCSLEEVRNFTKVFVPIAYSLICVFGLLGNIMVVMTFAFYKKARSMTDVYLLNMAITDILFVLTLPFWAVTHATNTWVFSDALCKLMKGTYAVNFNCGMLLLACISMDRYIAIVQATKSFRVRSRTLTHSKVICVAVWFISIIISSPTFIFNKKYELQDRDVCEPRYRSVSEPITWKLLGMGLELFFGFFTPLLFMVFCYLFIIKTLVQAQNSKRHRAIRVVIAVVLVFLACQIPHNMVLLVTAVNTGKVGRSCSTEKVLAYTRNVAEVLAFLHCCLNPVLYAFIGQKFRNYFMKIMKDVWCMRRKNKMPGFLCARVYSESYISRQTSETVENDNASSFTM
Description: For in vitro determination of chemokine receptor inhibitor activity, Compound 1.136 was dissolved in DMSO to generate a stock concentration of 10 mM that was further diluted in chemotaxis migration buffer (HBSS, 1% BSA, 1% HEPES) to create a 10-point inhibitor gradient ranging from 100 nM-0.01 nM. Migration assay was then run in 100% mouse serum in response to rmCCL20 for CCR6 activity or rmCXCL1 for CXCR2 activity using ChemoTx plates (Neuroprobe, Gaithersburg Md.) and assessed by fluorescence staining of migrated cells with CyQuant (Thermo Fisher).

mCCR1 = target: T2, mCCR1 (Mus musculus, UniProt P51675); test: Chemotaxis of mouse WEHI-274.1 cells to mCCL3; assay type: cell-based; settings: in serum; unit inferred
T2 construct: endogenous in cells; host or cells: mouse WEHI-274.1 cells (from the earlier reading's assay name)
T2 sequence (P51675 1-355): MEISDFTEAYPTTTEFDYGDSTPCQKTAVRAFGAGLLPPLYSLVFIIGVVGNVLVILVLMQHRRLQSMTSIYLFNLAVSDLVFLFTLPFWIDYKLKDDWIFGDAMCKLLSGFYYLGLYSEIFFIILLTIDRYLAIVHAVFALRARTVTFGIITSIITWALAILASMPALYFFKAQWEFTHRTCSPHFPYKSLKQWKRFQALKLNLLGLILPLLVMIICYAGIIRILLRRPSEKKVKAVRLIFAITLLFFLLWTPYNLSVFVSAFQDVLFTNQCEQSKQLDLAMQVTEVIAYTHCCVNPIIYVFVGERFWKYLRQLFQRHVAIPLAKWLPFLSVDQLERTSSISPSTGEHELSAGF

mCCR4 = target: T3, mCCR4 (Mus musculus, UniProt P51680); test: Chemotaxis of mCCR4-transfected BaF3 cells to mCCL22; assay type: cell-based; settings: A2 value, unit not given
T3 construct: expressed in transfected cells; host or cells: BaF3 cells (from the earlier reading's assay name)
T3 sequence (P51680 1-360): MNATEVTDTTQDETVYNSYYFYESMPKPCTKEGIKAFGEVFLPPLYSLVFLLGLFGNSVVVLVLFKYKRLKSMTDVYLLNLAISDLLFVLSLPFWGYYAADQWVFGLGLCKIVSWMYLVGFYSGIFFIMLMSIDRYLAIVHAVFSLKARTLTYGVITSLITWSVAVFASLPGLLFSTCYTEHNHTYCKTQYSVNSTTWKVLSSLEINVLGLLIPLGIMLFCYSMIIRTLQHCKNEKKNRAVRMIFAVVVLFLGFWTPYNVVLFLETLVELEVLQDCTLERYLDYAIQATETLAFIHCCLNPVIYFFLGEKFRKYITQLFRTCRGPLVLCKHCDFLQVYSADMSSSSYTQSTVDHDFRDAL

[1] = system: IL-36α-injected ears of Balb/c mice; test: Mouse model of IL-36-induced ear thickening (GPP model); assay type: in vivo
Description: (§1) For in vivo dosing, mice were dosed subcutaneously with Compound 1.136 once daily (s.c. q.d. in 1% HPMC) at 90 mg/kg unless stated otherwise, starting at day 0 of a study. The in vivo dose was predicted based on in vitro potency and the pharmacokinetic response to a single dose in mice. The minimum antagonist concentration (at trough) to fully cover a gradient-sensing chemoattractant receptor has been determined to correspond with the IC90 concentration (Schall, T. J., and A. E. Proudfoot. 2011. Overcoming hurdles in developing successful drugs targeting chemokine receptors. Nat Rev Immunol 11: 355-363).
Mouse model of IL-36-induced ear thickening. The right ear of 8-week old Balb/c mice received intradermal injections of recombinant murine IL-36α (150 μg per mouse formulated in PBS; BioLegend) every day for 5 days. Intradermal injections of PBS were given to the left ear as a control. Ear thickness was measured prior to start of study and each day thoughout the study using a digital micrometer. The imiquimod model of psoriasiform dermatitis was performed as previously described (Campbell Jet al. J Immunol. 2017; 199(9):3129-36. van der Fits et al. J Immunol 2009; 182(9):5836-45). Briefly, 5% Imiquimod (Fougera®) was applied daily to the shaved and depilated backs of Balb/c mice for up to 4 days. Control mice were treated with an application of Vaseline. Erythema, desquamation, and skin thickening were scored independently on a scale from 0 to 4 where 0=no disease; 1=slight disease; 2=moderate disease; 3=marked disease; 4=very marked disease (Campbell J et al. J Immunol. 2017; 199(9):3129-36. van der Fits et al. J Immunol 2009; 182(9):5836-45). Skin from the backs of mice was excised at the end of the study and processed for flow cytometry analysis,
Mouse anti-IL-17RA. (R&D Systems) was dosed as a positive control at 200-500 μg per mouse, i.p., q.d.

[2] = system: IL-36α-injected ears of Balb/c mice; test: H&E histology and epidermal thickness of IL-36α-injected ears; assay type: in vivo, mouse
Description: as §1
For hematoxylin and eosin (H&E) staining, ear tissue was initially fixed in paraformaldehyde for paraffin embedding. Samples were processed by standard procedures. Epidermal thickness was measured as the average of 7 measurements made along the center third (the area containing the lesion) of the length of the H&E stained ear sections using Photoshop CS4 software (Adobe®)

## CCC(C)(C)[C@@H](Nc1c(Nc2c(F)ccc3c2C(=O)N[C@H]3C)c(=O)c1=O)c1ccc(C)o1 [Compound 1.136]
mCCR6; BaF3, read-out: IC90 for CCR6 inhibition
  IC90: 0.045 µg/mL (≈ 0.102 µM)
mCCR6; read-out: IC50 on mouse CCR6, in vitro inhibition of chemotaxis
  IC50: 10 nM
mCCR1
  IC50: > 10000 nM
mCCR4
  A2 for chemotaxis of mCCR4-transfected BaF3 cells to mCCL22 in serum: >10,000
[1]; 90 mg/kg Compound 1.136 vs saturating dose of anti-IL-17RA MAb (500 μg per mouse per day), Mann-Whitney
  Effectiveness at reducing ear swelling, Compound 1.136 compared with α-IL-17RA: significantly more effective than α-IL-17RA
[1]; Balb/c mice, daily intradermal IL-36α, Compound 1.136 s.c. once daily
  Time course of the effect on ear thickness: appreciable after the second day of treatment
[1]; Balb/c mice, daily intradermal IL-36α, ear thickness after 4 days, Compound 1.136 30-90 mg/kg s.c. q.d., anti-IL-17RA 200 or 500 μg per mouse IP daily
  IL-36-induced ear thickening / ear swelling: dose-dependent decreases in IL-36-induced ear thickening; also recorded: ameliorates inflammatory swelling of IL-36α-injected ears
[2]; H&E ear sections after 4 daily IL-36α treatments, Compound 1.136 90 mg/kg/day s.c., anti-IL17RA 200 μg/mouse/day IP, 90 mg/kg/day
  IL-36α-mediated epidermal thickness: significantly reduced IL-36α-mediated epidermal thickness; also recorded: substantially reduces epidermal thickness
[2]; H&E sections after 4 days of treatment, Compound 1.136 90 mg/kg daily
  Stratum corneum and leukocyte infiltration in histology: the stratum corneum remained intact and leukocyte infiltration was reduced
[2]; H&E sections after 4 days of treatment, Compound 1.136 90 mg/kg daily, 90 mg/kg
  Histology of IL-36α-injected ears: dermal, epidermal and overall skin thickness: reduced IL-36α-induced dermal, epidermal and overall skin thickness; also recorded: substantially improves histology of IL-36α-injected ears
